Where “and” joins values, the source holds several entries; their conditions need not be identical. Identical values can stand only once.
Assays:
[1] = molar enthalpy of vaporization or sublimation; details: Crystal, Static calorimetry
[2] = Crystal, Calculated from knudsen effusion weight loss

Nc1c(Cl)cc([N+](=O)[O-])cc1[N+](=O)[O-] [2-chloro-4,6-dinitrobenzenamine]
Details | molar enthalpy [kcal/mol] | vapor or sublimation pressure
[1], 298.15 K | 27.5 | –
[1], 369.13 K | 27.3 | –
[2], 358.1 K | – | 0.000105 kPa and 0.000103 kPa and 0.00011 kPa
[2], 360.15 K | – | 0.00013 kPa and 0.000133 kPa and 0.000128 kPa
[2], 362.16 K | – | 0.000164 kPa and 0.000161 kPa and 0.000173 kPa
[2], 364.12 K | – | 0.000202 kPa and 0.000198 kPa and 0.000197 kPa
[2], 366.17 K | – | 0.000246 kPa and 0.000248 kPa and 0.00024 kPa
[2], 368.17 K | – | 0.000302 kPa and 0.000297 kPa and 0.000296 kPa
[2], 370.11 K | – | 0.000361 kPa and 0.000368 kPa
[2], 372.08 K | – | 0.000455 kPa and 0.00044 kPa and 0.000426 kPa
[2], 374.14 K | – | 0.00055 kPa and 0.000536 kPa
[2], 376.25 K | – | 0.000684 kPa and 0.000662 kPa and 0.000663 kPa
[2], 378.14 K | – | 0.000816 kPa and 0.000824 kPa and 0.000797 kPa
[2], 380.16 K | – | 0.000996 kPa and 0.000971 kPa and 0.000963 kPa

Nc1c([N+](=O)[O-])cc(Cl)cc1[N+](=O)[O-] [4-chloro-2,6-dinitroaniline]
Details | molar enthalpy [kcal/mol] | vapor or sublimation pressure
[1], 298.15 K | 25.1 | –
[1], 347.1 K | 25.02 | –
[2], 335.12 K | – | 7.67e-05 kPa and 7.72e-05 kPa and 7.84e-05 kPa
[2], 338.19 K | – | 0.00011 kPa and 0.000108 kPa and 0.000106 kPa
[2], 341.17 K | – | 0.00015 kPa and 0.000145 kPa and 0.000146 kPa
[2], 344.17 K | – | 0.000202 kPa and 0.000201 kPa and 0.000207 kPa
[2], 347.18 K | – | 0.000287 kPa and 0.000284 kPa and 0.000277 kPa
[2], 350.12 K | – | 0.000388 kPa and 0.000386 kPa
[2], 353.12 K | – | 0.00052 kPa and 0.000532 kPa and 0.000527 kPa
[2], 356.17 K | – | 0.000715 kPa and 0.000702 kPa and 0.00071 kPa
[2], 359.16 K | – | 0.000964 kPa and 0.000935 kPa and 0.000922 kPa
